Columns and labels:
Assay type in all cases: cell-based
[1] = tested on: human skeletal muscle cells (hSkMC2); test: Proliferation of human skeletal muscle cells, batch hSkMC2 (resazurin assay)
Description: (§1) Two different batches of human skeletal muscle cells or satellite cells (hSkMC1—obtained from a healthy person—and hSkMC2—obtained from a healthy person) were obtained from PromoCell (Heidelberg, Germany) and cultured in flasks according to the instructions by the provider. Cells were harvested and stored in liquid nitrogen until used for the experiments. Cells were not used at passage number higher than 15. For the experiments cells were cultured at 37° C. and 5% CO2 at a density of 3,500-7,000 cells/cm2 in basal medium (PromoCell) plus the addition of 5% charcoal (Sigma-Aldrich) treated fetal bovine serum (FBS) (PAA, Germany) using 24-well plates (Costar) til about 80% confluency.
(§2) Medium and hormones were replaced on day 1, 4 and 7. Proliferation was measured using the resazurin assay (Stern-Straeter et al., 2008). Statistical analysis of the proliferation data was performed with the Student's t-test.

[2] = tested on: human skeletal muscle cells (hSkMC1); test: Proliferation of human skeletal muscle cells, batch hSkMC1 (resazurin assay); conditions: for Effect on proliferation (FIG. 3a, in words): individual compounds and all 4 combinations, combinations P<0.001, except 100 nM nandrolone plus 100 nM P<0.05
Description: as §1, §2

[3] = tested on: vitamin D receptor expression in human skeletal muscle cells (hSkMC1); test: Vitamin D receptor expression by flow cytometry, hSkMC1 cells; conditions: compared with hSkMC2, data not shown
Description: as §1
(§3) Androgen and vitamin D receptor staining protocols with the subsequent visualization by flow cytometry methods were derived from the publications of Krishan et al. (2000) and Folgueira et al. (2000). […] All solutions further contained Tween 20 (Sigma Aldrich) as detergent to maintain the permeabilized status of the cells throughout the entire staining experiment. The staining in non-stimulated and stimulated cells were compared by determining the intensity of the staining in the cells as well as the staining in the % of cells. […] The increase in the % of stained cells beyond the setpoint of the marker (at 1% for background staining) was determined with and without hormonal treatment.

[4] = tested on: vitamin D receptor (VD3R) expression in human skeletal muscle cells (hSkMC2); test: Vitamin D receptor expression by flow cytometry, hSkMC2 cells; conditions: 5 days of treatment, flow cytometry (FIG. 2)
Description: as §1, §3

SMILES | Percentage increase (% Δ) in proliferation compared to control ([1]; 10 nM dhvit D3, 8 days) [%] | Percentage increase (% Δ) in proliferation compared to control ([1]; 100 nM dhvit D3, 8 days) [%] | Effect on proliferation (FIG. 3b, in words) ([1]; higher concentrations of 1α,25-dihydroxyvitamin D3, 4 combinations vs control P<0.05, except 100 nM nandrolone plus 10 nM P<0.001) | Percentage increase (% Δ) in proliferation compared to control ([2]; 10 nM dhvit D3, 8 days) [%] | Percentage increase (% Δ) in proliferation compared to control ([2]; 100 nM dhvit D3, 8 days) [%] | Effect on proliferation (FIG. 3a, in words) [2] | Effect on vitamin D receptor expression [3] | Change in number of cells with positive vitamin D receptor [4] | Percentage increase (% Δ) in proliferation compared to control ([1]; 100 nM nandrolone, 8 days) [%] | Percentage increase (% Δ) in proliferation compared to control ([1]; 1000 nM nandrolone, 8 days) [%] | Percentage increase (% Δ) in proliferation compared to control ([2]; 100 nM nandrolone, 8 days) [%] | Percentage increase (% Δ) in proliferation compared to control ([2]; 1000 nM nandrolone, 8 days) [%]
C=C1/C(=C\C=C2/CCC[C@]3(C)[C@@H]([C@H](C)CCCC(C)(C)O)CC[C@@H]23)C[C@@H](O)C[C@@H]1O [dhvit D3, 1α,25-dihydroxyvitamin D3] | 1 | 8 | an increase in proliferation | 1 | −5 | no effect on proliferation | less pronounced |  |  |  |  | 
C[C@]12CC[C@H]3[C@@H](CCC4=CC(=O)CC[C@@H]43)[C@@H]1CC[C@@H]2O [nandrolone] |  |  |  |  |  | no effect on proliferation | less pronounced | increases | 4 | 1 | 3 | 1

Source: patent US10543217B2, “Method of treating frailty” (Organext Research B.V., priority 2009, dated 2020)
